The values that follow come from paper PMC4289655 (Antiviral Research, 2014).

The target in this assay is T1, UL98 (CMV alkaline nuclease) (Human herpesvirus 5 strain AD169, UniProt P16789).
T1 sequence (P16789 1-584): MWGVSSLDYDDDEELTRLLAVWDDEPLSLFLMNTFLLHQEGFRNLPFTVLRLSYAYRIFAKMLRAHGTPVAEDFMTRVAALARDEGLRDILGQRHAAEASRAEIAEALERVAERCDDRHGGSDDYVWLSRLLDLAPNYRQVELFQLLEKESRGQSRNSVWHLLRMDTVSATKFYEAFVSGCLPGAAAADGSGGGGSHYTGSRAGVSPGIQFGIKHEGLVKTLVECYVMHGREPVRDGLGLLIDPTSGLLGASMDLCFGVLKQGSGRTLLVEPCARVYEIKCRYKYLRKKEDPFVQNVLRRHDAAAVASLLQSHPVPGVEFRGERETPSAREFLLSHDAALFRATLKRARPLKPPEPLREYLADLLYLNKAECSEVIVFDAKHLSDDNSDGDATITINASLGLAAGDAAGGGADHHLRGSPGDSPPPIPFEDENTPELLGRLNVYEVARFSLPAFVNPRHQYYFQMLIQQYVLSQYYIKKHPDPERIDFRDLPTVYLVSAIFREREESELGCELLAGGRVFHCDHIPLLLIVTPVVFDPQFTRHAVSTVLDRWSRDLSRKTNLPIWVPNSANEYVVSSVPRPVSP
The assay is described as follows: TCA-soluble […] release from labeled E. coli duplex DNA. The class given is biochemical.

As to `CC(=O)Nc1ccc(Nc2cc(S(=O)(=O)O)c(N)c3c2C(=O)c2ccccc2C3=O)cc1` [acid blue 40], half-maximal inhibition (IC50) was put at 99 µM.

For `Cc1cc(C)c(Nc2cc(S(=O)(=O)O)c(N)c3c2C(=O)c2ccccc2C3=O)c(C)c1` [atanyl blue PRL], it took 4.5 ± 0.7 µM to reach half-maximal inhibition (IC50).

The IC50 is the concentration that inhibits the measured activity by half.
